Test results as given in patent US20130309380A1, “METHODS FOR PRESERVING FRESH PRODUCE” (NatureSeal, Inc., priority 2003, published 2013).

Test system: Red Delicious apples
Test: Evaluation of sliced Red Delicious apples preserved with fresh produce preservative (scores)
Details: for Color / Flavor / Moistness / Texture: scale 0-10; for color/appearance score: scale to 10
Description: The texture, flavor, and moistness of the fruit were evaluated by tasting fruit samples. The color and/or appearance was also evaluated by visual inspection. The color, texture, moistness and flavor were then evaluated according to a scale of either 1 to 10, with 10 being the value assigned to a freshly cut piece of comparative fruit or vegetable. A value of less than 7 is not acceptable.
Whole Red Delicious apples were rinsed with tap water, sanitized with a sodium hypochlorite solution containing 100 ppm chlorine, then cored and sliced. The apple slices were immersed in water for 0.5 to 2 minutes. Then the apple slices were dipped into produce preservative solution containing 4% ascorbic acid and 1.59% K2CO3 having a pH 5.69 for 1 minute. The slices were removed from the solution and drained for 1-2 minutes, sealed in polyethylene bags, and stored at 2-5° C. For controls, sliced apples either not treated or were dipped into either 4% ascorbic acid with 0.66% NaOH to adjust the pH to 4.45. For comparison, sliced apples were dipped into a solution containing 4% ascorbic acid and 1.22% Na2CO3 and having a pH of 5.58.
The apples were evaluated and scored on a scale of 0-10 at time intervals. A score of 10 means that the fruit's color and appearance is as good as fresh cut fruit. A score of 7 is the minimum acceptable appearance. Hardness was measured with QTS25.
Red Delicious apples and Granny Smith apples were preserved with the fresh produce preservative as in Example 1 a, except that the preservative solution contained 4% ascorbic acid and 1% Li2CO3.

Compound `O=C1O[C@H]([C@@H](O)CO)C(O)=C1O` [Ascorbic Acid, ascorbic acid] has a Color (0 hour) of 10, a Flavor (0 hour) of 5 and a Moistness (0 hour) of 10. For the same compound, the Texture (0 hour) was 10, the Color (1 week at 2-5° C.) was 9.6 and the Flavor (1 week at 2-5° C.) was 7. It also gave a Moistness (1 week at 2-5° C.) of 10, a Texture (1 week at 2-5° C.) of 7.8 and a color/appearance score (1 week) of 6. For the same compound, the Color (2 week at 2-5° C.) was 8.4, the Flavor (2 week at 2-5° C.) was 7 and the Moistness (2 week at 2-5° C.) was 9. The Texture (2 week at 2-5° C.) was 7, the Color (1 day at 2-5° C.) was 10 and the Flavor (1 day at 2-5° C.) was 8. It also gave a Moistness (1 day at 2-5° C.) of 10, a Texture (1 day at 2-5° C.) of 9.8 and a color/appearance score (24 hours (app)) of 9. The color/appearance score (3 days) was 9.
